What all share (assay type): cell-based
For test [1], the system named is nuclear localization of NF-κB induced by LPS in THP1 cells. Put plainly: Cellular phenotype screening in a 96-well microplate: imaging cell sorter sorting, then enrichment of first barcode nucleic acid sequences. The following applies: sorted for absence of NF-κB nuclear localization under LPS stimulation; value above 1 = more concentrated than before sorting; TAK242 at 30 μM; FIG. 21. Here is the method: In accordance with the schematic diagram illustrated in FIG. 18, a search was carried out for test targets which cause a desired phenotypic change (in the example of FIG. 18, test substances which inhibit nuclear localization of NF-κB induced by LPS).
Specifically, in each well of a 96-well microplate, the first barcode nucleic acids were attached to cells (THP1 cells) according to the method described in Reference Example 1 and further brought into contact with test substances. At this time, different types and concentrations of the test substance and different types of the first barcode nucleic acids were used in each well. Due to this, 96 types of test targets (24 types of test substances×4 types of concentrations) were associated with 96 types of first barcode nucleic acids which are attached to the cells (THP1 cells). […]
Next, in the same manner as the examples described above, a single cell analysis was performed on the cell mixture solution sorted and recovered by the imaging cell sorter. Specifically, when reading out the DNA barcodes modifying each cell and cell-derived genetic information, the Chromium Controller apparatus and the Single Cell 3′ Reagent Kit v3 manufactured by 10× Genomics, which is a single cell analysis technology using a droplet technique as in Example 5 and Example 6, were used. […]

The test system of test [2] is nuclear localization of NF-κB in THP1 cells. Put plainly: Nuclear localization score of sorted cells by image flow cytometry. The following applies: cells treated with LPS and test substance (TAK242 30 μM); higher value indicates higher degree of nuclear localization; FIG. 22. The protocol:
The photographic images of the cells were captured by an image flow cytometry and the nuclear localization scores were also calculated by the imaging flow cytometry. Regarding the nuclear localization scores, a higher value indicates a higher degree of nuclear localization.

Test [3] has as its system NFκB protein nuclear localization in THP1 cells. Put plainly: NFκB protein localization by immunostaining and fluorescent light microscope in cells treated with the drug. The following applies: LPS 2 μg/mL, 2 hours at 37 degrees, fluorescent light microscope, FIG. 7. Here is the method: Next, cells collected by centrifugation in advance were added to the tube 1 and incubated. The cells used at this time were THP1 cells and the cell concentration was set to 1×10^7 cells/mL. The incubation was carried out for 5 minutes at room temperature.
Cells were resuspended in RPM1-1640 medium with 10% FBS and 50 μM 2-mercaptoethanol in the tube 1 and the tube 2, respectively. Next, as a drug, lipopolysaccharide (LPS) suspended in dimethyl sulfoxide (DMSO) was added to tube 1 only, at a final concentration of 2 μg/mL. In the tube 2, only DMSO, the solvent for the drug, was added. Next, the tube 1 and the tube 2 were incubated for 2 hours at 37 degrees in CO2, respectively. Through the experiment up to here, the drug condition whether the drug LPS is present or not, was respectively associated to each of the cells by corresponding each cell to the first barcode nucleic acid type A or the second barcode nucleic acid type B.
Next, some cells were collected from the tube 1 and the tube 2, respectively. […]

Results on three compounds are retold here after patent publication US12644203B2, “Cellular phenotype screening method” (ThinkCyte, Inc., priority 2020, dated 2026).

Turning to `C=C1C(=O)O[C@@H]2/C=C(\C)CC/C=C(\C)CC[C@@H]12` [Costunolide], the “enrichment level of the first barcode nucleic acid sequence of the sorted cells” value in test [1] is given as “significantly enriched”. This compound came in with a nuclear localization score in test [2] of 0.23.
As for `CCOC(=O)C1=CCCC[C@H]1S(=O)(=O)Nc1ccc(F)cc1Cl` [TAK242], the “enrichment level of the first barcode nucleic acid sequence of the sorted cells” value in test [1] is “approximately 1.5 fold”. Moreover, the nuclear localization score in test [2] is 0.92.
As to lipopolysaccharide [LPS], the “localization of NFκB protein” value in test [3] was “almost all of the NFκB protein was localized in the nucleus”. The compound further came in with a nuclear localization score in test [2] of 0.30.
